Assays:
[1] = system: mHTT aggregates in HOM zQ175 brain sections; experiment: In vitro ARG, single concentration, HOM zQ175 brain sections; assay type: binding, mouse; conditions: 0.5 nM
Method: (§1) Twenty µm-thick sections were prepared from brains of disease mouse models and WT mice or human post-mortem brain samples by using a cryostat, mounted on superfrost slides and stored at -80 °C for a maximum of 2 weeks. On the day of the experiment, slides were adapted to room temperature for 30 min and then equilibrated by immersion into assay buffer (50 mM Tris–HCl pH 7.4; 120 mM NaCl; 5 mM KCl; 2 mM CaCl2; 1 mM MgCl2) for 20 min at room temperature.
Radioligand solutions were prepared in assay buffer. Optimal radioligand concentrations were determined in advance based on signal-to-background ratio obtained in mouse or human brain tissue. The solutions were mixed in a Coplin jar (Sigma, S5516-6EA) by gently shaking at 175 rpm for 10 min at room temperature. Sections were incubated by immersion into assay buffer containing either only radioligand (total binding or TB) or radioligand plus 10 µM of unlabeled compound (non-specific binding or NSB) for 60 min at room temperature. Afterwards slides were washed three times for 10 min with ice-cold washing buffer (50 mM Tris–HCl (pH 7.4)) at 4 °C and dipped for three seconds in ice-cold distilled water to remove buffer salts. The slides were dried for 3 h at 30 °C and exposed for 96 h to a Tritium Phosphor Screen (GE Healthcare, Fuji BAS-TR 2025 E) Stored radiation energy on the screen was scanned using a Phosphorimager (GE Healthcare, Typhoon FLA 7000). Densitometric data analysis of radioligand binding was performed using the MCID Analysis 7.1 software (Interfocus Imaging Ltd.). Radioisotope concentration standards (American Radiolabeled Chemicals, ART 0123C and ART 0123B) were exposed with each specimen to enable conversion of density values into tissue-equivalent ligand concentrations (e.g., fmol/mg tissue). A standard curve was created to relate the system´s internal relative optical density measurement (ROD; an inverse logarithmic function of gray level values) to the set of standard values (e.g., isotope concentration). The standard´s isotope concentration (e.g., nCi/mg) is therefore converted into tissue-equivalent ligand concentrations (e.g., fmol/mg tissue) by referring to the radioligand´s specific activity (e.g., Ci/mmol) and including decay-correction. After phosphor screen exposure the human brain sections were stained for 4 min with 0.1% toluidine blue dye solution (Sigma-Aldrich) and rinsed twice in distilled water. To differentiate gray and white matter, the slides were decolorized with 70% ethanol (Merck) for 2–5 min followed by rinse in distilled water. Gray matter appears as gray color and white matter as bluish.

[2] = biological target: phospho-Tau tangles (AT8 antibody) (Homo sapiens, UniProt P10636); experiment: HR ARG co-registration with AT8 antibody, human AD brain sections; assay type: binding; conditions: 10 nM CHDI-180, 10 nM CHDI-626, 0.1 nM PiB, 1 nM T808
Chain of phospho-Tau tangles (AT8 antibody) (P10636 623-695 limits assumed): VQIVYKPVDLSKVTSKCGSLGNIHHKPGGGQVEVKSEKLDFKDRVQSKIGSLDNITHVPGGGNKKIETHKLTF

[3] = system: aggregated ataxin 1; experiment: ARG, Sca1 mouse models; assay type: binding
Method: as §1
Radioligand solutions were prepared in assay buffer. Optimal radioligand concentrations were determined in advance based on signal-to-background ratio obtained in mouse or human brain tissue. The solutions were mixed in a Coplin jar (Sigma, S5516-6EA) by gently shaking at 175 rpm for 10 min at room temperature. Sections were incubated by immersion into assay buffer containing either only radioligand (total binding or TB) or radioligand plus 10 µM of unlabeled compound (non-specific binding or NSB) for 60 min at room temperature. Afterwards slides were washed three times for 10 min with ice-cold washing buffer (50 mM Tris–HCl (pH 7.4)) at 4 °C and dipped for three seconds in ice-cold distilled water to remove buffer salts. […]

Question: For COc1ccc(COc2ccc3oc(-c4ccc(=O)n(C)n4)nc3c2)nc1 [CHDI-180], which NSB ([1]; 3 month HOM Q175, CTX) is on record?
Answer: 1.3 ± 2.2 fmol/mg

Question: And the SB ([1]; 3 month HOM Q175, CTX)?
Answer: 4.3 ± 2.3 fmol/mg

Question: What about the TB ([1]; 3 month HOM Q175, CTX) of the same compound?
Answer: 5.6 ± 0.3 fmol/mg

Question: And the NSB ([1]; 3 month HOM Q175, HPC)?
Answer: 0.3 ± 0.3 fmol/mg

Question: And the SB ([1]; 3 month HOM Q175, HPC)?
Answer: 4.8 ± 0.4 fmol/mg

Question: What about the TB ([1]; 3 month HOM Q175, HPC) of the same compound?
Answer: 5.1 ± 0.3 fmol/mg

Question: And the NSB ([1]; 3 month HOM Q175, STR)?
Answer: 0.4 ± 0.4 fmol/mg

Question: What about the SB ([1]; 3 month HOM Q175, STR) of the same compound?
Answer: 3.5 ± 0.3 fmol/mg

Question: What about the TB ([1]; 3 month HOM Q175, STR) of the same compound?
Answer: 3.9 ± 0.5 fmol/mg

Question: And the NSB ([1]; 6 month HOM Q175, CTX)?
Answer: 0.2 ± 0.4 fmol/mg

Question: And the SB ([1]; 6 month HOM Q175, CTX)?
Answer: 24.4 ± 1.4 fmol/mg

Question: What about the TB ([1]; 6 month HOM Q175, CTX) of the same compound?
Answer: 24.6 ± 1.0 fmol/mg

Question: And the NSB ([1]; 6 month HOM Q175, HPC)?
Answer: 0.1 ± 0.0 fmol/mg

Question: What about the SB ([1]; 6 month HOM Q175, HPC) of the same compound?
Answer: 25.0 ± 1.6 fmol/mg

Question: And the TB ([1]; 6 month HOM Q175, HPC)?
Answer: 25.1 ± 1.6 fmol/mg

Question: What about the NSB ([1]; 6 month HOM Q175, STR) of the same compound?
Answer: 0.3 ± 0.2 fmol/mg

Question: And the SB ([1]; 6 month HOM Q175, STR)?
Answer: 15.8 ± 2.7 fmol/mg

Question: What about the TB ([1]; 6 month HOM Q175, STR) of the same compound?
Answer: 16.1 ± 2.9 fmol/mg

Question: And the NSB ([1]; 9 month HOM Q175, CTX)?
Answer: 0.9 ± 0.8 fmol/mg

Question: And the SB ([1]; 9 month HOM Q175, CTX)?
Answer: 48.8 ± 8.3 fmol/mg

Question: What about the TB ([1]; 9 month HOM Q175, CTX) of the same compound?
Answer: 49.7 ± 7.4 fmol/mg

Question: What about the NSB ([1]; 9 month HOM Q175, HPC) of the same compound?
Answer: 0.2 ± 0.2 fmol/mg

Question: And the SB ([1]; 9 month HOM Q175, HPC)?
Answer: 41.3 ± 2.2 fmol/mg

Question: What about the TB ([1]; 9 month HOM Q175, HPC) of the same compound?
Answer: 41.5 ± 2.4 fmol/mg

Question: And the NSB ([1]; 9 month HOM Q175, STR)?
Answer: 0.4 ± 0.4 fmol/mg

Question: What about the SB ([1]; 9 month HOM Q175, STR) of the same compound?
Answer: 28.4 ± 2.4 fmol/mg

Question: What about the TB ([1]; 9 month HOM Q175, STR) of the same compound?
Answer: 28.8 ± 2.7 fmol/mg

Question: And the NSB ([1]; 12 month HOM Q175, CTX)?
Answer: 0.8 ± 0.7 fmol/mg

Question: And the SB ([1]; 12 month HOM Q175, CTX)?
Answer: 70.2 ± 10.5 fmol/mg

Question: What about the TB ([1]; 12 month HOM Q175, CTX) of the same compound?
Answer: 70.9 ± 11.0 fmol/mg

Question: What about the NSB ([1]; 12 month HOM Q175, HPC, n=2) of the same compound?
Answer: 0.4 ± 0.7 fmol/mg

Question: What about the NSB ([1]; 12 month HOM Q175, STR) of the same compound?
Answer: 0.4 ± 0.3 fmol/mg

Question: And the SB ([1]; 12 month HOM Q175, STR)?
Answer: 41.3 ± 2.8 fmol/mg

Question: And the TB ([1]; 12 month HOM Q175, STR)?
Answer: 41.6 ± 3.1 fmol/mg

Question: And the “co-registration with AT8-positive phospho-Tau immunoreactivity” value [2]?
Answer: did not co-register

Question: And the “binding to aggregated ataxin 1” value ([3]; 1 nM radioligand, PcP2-82Q and SCA154Q/2Q mice)?
Answer: bound to aggregated ataxin 1

Question: What about the “ARG signals compared to the R6/2 HD model” value ([3]; brain sections of 2 Sca mouse models) of the same compound?
Answer: much lower
